According to patent US9717722B2, “Methods and agents for treating tyrosinase-positive albinism” (NEW YORK UNIVERSITY, priority 2013, dated 2017):

Columns and labels:
[1] = tested on: wildtype (WT) melanocytes; assay: melanin assay in wildtype melanocytes; assay type: cell-based; details: FIG. 3; 72 hours
Procedure: (§1) Cells were seeded in six-well plates in triplicate. After 24 hours, each cell line was treated with IBMX, forskolin or rapamycin, in addition, Oca2-null melanocytes were treated with bafilomycin. Plates were incubated for 72 hours. Melanocytes were harvested and a melanin assay performed as described above.
Wildtype cells were plated in 24-well plates for 24 hours followed by dosing with the indicated compounds. DMSO was used as a vehicle control. Cells were harvested after 3 days and a melanin assay was performed as described above.
Selected compounds identified in the screen were tested using a traditional melanin assay in order to verify the findings of the screen. Following 3 (normal melanocytes) or 5 (mutant melanocytes) days of treatment, melanocytes were harvested in extraction buffer (50 mM Tris pH7.5, 2 mM EDTA, 150 mM NaCl) containing 1% Triton X-100 and protease inhibitors (Complete, Roche Indianapolis, Ind.) following two washes with 1× phosphate buffered saline (PBS). The lysate was centrifuged for 30 min at 13,000 rpm in a microfuge. The supernatant was removed and the protein concentration determined using a protein assay kit (BioRad, Richmond, Calif.). […] The optical density was determined at 490 nm. The value was normalized to protein concentration in the supernatant and expressed as a ratio of the melanin in the untreated cells.

[2] = tested on: wildtype (WT) melanocytes; details: Ni-Komatsu et al. 2008 Mol Pharmacol; cited from earlier work
[3] = tested on: Oca2-null (OCA2) melanocytes; assay: melanin assay in Oca2-null melanocytes; assay type: cell-based, mouse; details: for pigmentation (melanin level) in Oca2-null melanocytes: FIG. 1, harvested after 5 days, relative to DMSO vehicle
Procedure: (§2) Oca2-null cells were plated in 60 mm dishes for 24 hours followed by dosing with the indicated compounds. DMSO was used as a vehicle control (to establish the baseline for comparison). Cells were harvested after 5 days. Melanocytes were harvested in extraction buffer (50 mM Tris pH7.5, 2 mM EDTA, 150 mM NaCl) containing 1% Triton X-100 and protease inhibitors (Complete, Roche Indianapolis, Ind.) following two washes with 1× phosphate buffered saline (PBS). The lysate was centrifuged for 30 min at 13,000 rpm in a microfuge. The supernatant was removed and the protein concentration determined using a protein assay kit (BioRad, Richmond, Calif.). Three hundred μl of ethanol:ether (1:1) were added to the pellet, which was then vortexed. After incubation at room temperature for 10 min, the solvent was removed (leaving the melanin behind) and the ethanol:ether wash repeated without vortexing. The melanin was then dissolved in 2 N NaOH, 20% DMSO at 60-70° C. The optical density was determined at 490 nm. The value was normalized to protein concentration in the supernatant and expressed as a ratio of the melanin in the vehicle treated cells.
as §1
Oca2-null cells were plated in 60 mm dishes for 24 hours followed by dosing with the indicated compounds. DMSO was used as a vehicle control. […]
Selected compounds identified in the screen were tested using a traditional melanin assay in order to verify the findings of the screen. […] The supernatant was removed and the protein concentration determined using a protein assay kit (BioRad, Richmond, Calif.). […] The optical density was determined at 490 nm. The value was normalized to protein concentration in the supernatant and expressed as a ratio of the melanin in the untreated cells.

[4] = tested on: Oca3-null (OCA3) melanocytes; assay: melanin assay in Oca3-null melanocytes; assay type: cell-based, murine; details: FIG. 2; 72 hours; relative to vehicle
Procedure: as §2
Oca3-null melanocytes were seeded in six-well plates in triplicate. After 24 hours, each cell line was treated with vehicle, chloroquine or rapamycin. Plates were incubated for 72 hours. Melanocytes were harvested and a melanin assay performed as described above.

[5] = tested on: Oca2-null melanocytes; assay: toxicity to Oca2-null melanocytes; assay type: cell-based, mouse; details: compared with wildtype melanocytes
[6] = tested on: Oca2-null cells; assay: 96-well melanin absorbance screen with MTS cell proliferation assay; assay type: cell-based, mouse; details: library compounds at 5 and/or 1 μM; bafilomycin A1 as positive control
Procedure: The present inventors utilized the chemical genetics approach described herein to identify compounds that can be used to reverse the diminished pigmentation in Oca2-null cells. To this end, they first developed a 96-well assay system for rapid compound screening. Melanocytes were cultured in a 96-well plate in the presence of test compounds. Melanin content was determined by replacing the culture medium with PBS and measuring absorbance at 490 nm.
Following validation of their assay system, the present inventors performed a screen, treating Oca2-null cells with library compounds at concentrations of 5 and/or 1 μM. Each plate included untreated Oca2-null cells as negative controls and cells treated with bafilomycin A1 as positive controls. Compounds identified as potential hits were then re-screened to verify their ability to promote melanin synthesis in cells lacking functional Oca2 protein.

[7] = tested on: wildtype melanocytes; assay: toxicity to wildtype melanocytes; assay type: cell-based; details: even at nanomolar concentrations
[8] = tested on: melanoma cells; details: reported previously; by upregulating expression of tyrosinase; cited from earlier work

CC(C)Cn1c(=O)n(C)c(=O)c2[nH]cnc21 [IBMX, 3-isobutyl-1-methylxanthine]
melanin content of wildtype (WT) melanocytes [1]: effective in increasing the melanin content

CCN(CC)CCCC(C)Nc1ccnc2cc(Cl)ccc12 (racemic) [chloroquine, (RS)—N′-(7-chloroquinolin-4-yl)-N,N-diethyl-pentane-1,4-diamine]
pigmentation in normal melanocytes [2]: decrease pigmentation | pigmentation (melanin level) in Oca2-null melanocytes [3]: increase pigmentation | pigmentation (melanin level) in Oca3-null melanocytes [4]: increase pigmentation

CO/C1=C\C(C)=C\[C@@H](C)[C@@H](O)[C@@H](C)C/C(C)=C/C=C/[C@H](OC)[C@@H]([C@@H](C)[C@@H](O)[C@H](C)[C@@]2(O)C[C@@H](O)[C@H](C)[C@@H](C(C)C)O2)OC1=O [Bafilomycin, bafilomycin A1]
accompanying toxicity in Oca2-null melanocytes [5]: much less accompanying toxicity | pigmentation of Oca2-null cells in 96-well screen [6]: reverses the pigmentation phenotype | melanin content of Oca2-null (OCA2) melanocytes ([3]; FIG. 3, 72 hours): increased the melanin content | toxicity to wildtype melanocytes [7]: highly toxic

CO[C@H]1C[C@@H]2CC[C@@H](C)[C@@](O)(O2)C(=O)C(=O)N2CCCC[C@H]2C(=O)O[C@H]([C@H](C)C[C@@H]2CC[C@@H](O)[C@H](OC)C2)CC(=O)[C@H](C)/C=C(\C)[C@@H](O)[C@@H](OC)C(=O)[C@H](C)C[C@H](C)/C=C/C=C/C=C/1C [rapamycin, Rapamycin]
pigmentation (melanin level) in Oca2-null melanocytes [3]: increase pigmentation | pigmentation in melanoma cells [8]: increase pigmentation | pigmentation (melanin level) in Oca3-null melanocytes [4]: increase pigmentation
